# Reference: patent publication US20100255580A1, “Differentiation of Human Embryonic Stem Cells” (LIFESCCAN, INC., priority 2007, published 2010)
# Legend:
# [1] = system: human embryonic stem cell line H7; assay: FACS analysis of protein expression following activin A treatment, H7; type: cell-based; conditions: AA 100 ng/ml
# Source text: (§1) The level of expression of definitive endoderm markers was examined by PCR (FIG. 1), FACS (results summarized in Table II), and immunohistochemistry (FIG. 2).
# (§2) CXCR4 positive cells were also highly positive for C-kit, EPCAM, CD99, and negative for CD9. The expression pattern for these markers was consistent among all three hES cell lines examined (Table IIB for H7 and Table IIC for H1). […] In parallel, almost 100% of the differentiated cells were […] (FIG. 2).
# (§3) Adhered cells were removed from culture plates by five-minute incubation with TrypLE™ Express solution (Invitrogen, CA). Released cells were resuspended in human embryonic stem cell culture medium and recovered by centrifugation, followed by washing and resuspending the cells in a staining buffer consisting of 2% BSA, 0.05% sodium azide in PBS (Sigma, MO). As appropriate, the cells were Fc-receptor blocked for 15 minutes using a 0.1% γ-globulin (Sigma) solution. […] Controls included appropriate isotype matched antibodies, unstained cells, and cells stained only with secondary conjugated antibody. All incubations with antibodies were performed for 30 mins at 4° C. after which the cells were washed with the staining buffer. Samples that were stained with unconjugated primary antibodies were incubated for an additional 30 mins at 4° C. with secondary conjugated PE or -APC labeled antibodies. See Table I for a list of secondary antibodies used. Washed cells were pelleted and resuspended in the staining buffer, and the cell surface molecules were identified using a FACS Array (BD Biosciences) instrument, collecting at least 10,000 events.
# [2] = system: human embryonic stem cell line H1; assay: FACS analysis of protein expression following activin A treatment, H1; type: cell-based; conditions: 5-day AA treatment
# Source text: as §1, §2, §3
# [3] = system: human embryonic stem cell line H9; assay: Immunocytochemistry of endoderm markers, H9; type: cell-based; conditions: activin A for five days
# Source text: as §1
# (§4) Cells were harvested at the time points indicated in FIG. 3 and assayed by PCR for the expression of genes shown (FIGS. 3, 4 and 5).
# [4] = system: human embryonic stem cell line H9; assay: Real-time PCR of marker gene expression, H9 on MEF (Examples 2-7); type: cell-based
# Method: as §4
# After this time interval, the cells were then treated for six days with combinations of retinoic acid and FGF as outlined in Example 2, then the culture medium was removed and replaced with medium comprising DMEM/F12 with 2% FBS, containing the γ-secretase inhibitors L-685,458 at 10 μM for three days.
# Cells were continuously cultured for another 3 to 5 days in basal medium with retinoic acid at 1 μM, alone or with bFGF. RNA samples were harvested from cells at various time points along this process to help evaluate the directed differentiation of the cells. Furthermore, culture medium and factors were regularly removed and replenished throughout the differentiation protocol.
# RNA extraction, purification, and cDNA synthesis. RNA samples were purified by binding to a silica-gel membrane (Rneasy Mini Kit, Qiagen, CA) in the presence of an ethanol-containing, high-salt buffer followed by washing to remove contaminants. The RNA was further purified using a TURBO DNA-free kit (Ambion, INC), and high-quality RNA was then eluted in water. Yield and purity were assessed by A260 and A280 readings on a spectrophotometer. cDNA copies were made from purified RNA using an ABI (ABI, CA) high capacity cDNA archive kit.
# (§5) Real-time PCR amplification and quantitative analysis.
# (§6) Final data were expressed relative to a calibrator sample.
# H9P44 cells = assay: RT-PCR of definitive endoderm markers, growth factor combinations in low serum on MEFs (Example 22); type: cell-based, human; conditions: H9P44 on MEF; Day 3; normalized to Group 1 (control)
# Method: as §5, §6
# H9P44 cells were plated onto 6 well plates previously coated with mitomycin treated mouse embryonic fibroblasts (MEF). Cells were grown until 70 to 80% confluency in ES cell medium consisting of DMEM/F12 (Invitrogen/GIBCO) supplemented with 20% knockout serum replacement, 100 nM MEM nonessential amino acids, 0.5 mM beta-mercaptoethanol, 2 mM L-glutamine (all from Invitrogen/GIBCO) and 8 ng/ml human basic fibroblast growth factor (bFGF) (R&D Systems).
# Growth factors were added to increasing concentration of FBS in a stepwise manner as indicated in the following regimen: • Day 0: 0% FBS in DMEM/F12 • Day 1: 0.5% FBS in DMEM/F12 • Day 2: 2% FBS in DMEM/F12. • Day 3: Cells were harvested for FACS analysis and RT-PCR.
# All growth factors were purchased from R&D Systems, MN. A detailed description and concentration of growth factors for each treatment group is shown below.
# For RT-PCR analysis, cells were analyzed for expression of selected panel of definitive endoderm markers.
# SA002 ES line = assay: Real-time PCR and FACS of DE markers, SA002 on […]; type: cell-based, human; conditions: SA002 P38; 20 ng/ml Wnt-3a with 100 ng/ml activin A
# Source text: Expression of CXCR4 is depicted in FIG. 45: a) AA treatment b) AA+Wnt-3a c) AA+GSK-3B inhibitor.
substance,measurement,setting,value
Activin A: a member of the TGFβ superfamily; R&D Systems; Group 2 = Activin A (100 ng/ml),CXCR4+,[1]; 1-day,6%
same,CXCR4+ C-Kit+,[1]; 1-day,2.97%
same,CXCR4+ CD9+,[1]; 1-day,8.13%
same,CXCR4+ EPCAM+,[1]; 1-day,14.58%
same,CXCR4+,[1]; 3-day,38%
same,CXCR4+ C-Kit+,[1]; 3-day,31.56%
same,CXCR4+ CD9+,[1]; 3-day,24.11%
same,CXCR4+ EPCAM+,[1]; 3-day,36.67%
same,CXCR4+,[1]; 5-day,65.5%
same,CXCR4+ C-Kit+,[1]; 5-day,55.21%
same,CXCR4+ CD9+,[1]; 5-day,2.1%
same,CXCR4+ EPCAM+,[1]; 5-day,54.5%
same,CXCR4+,[2],92.78%
same,CXCR4+/C-kit+,[2],92.90%
same,CXCR4+/CD9+,[2],7.03%
same,CXCR4+/CD99+,[2],88.78%
same,CXCR4+/EPCAM,[2],87.99%
same,cells positive for Sox17 and HNF-3beta (immunocytochemistry),[3],30-40%
same,differentiated cells still Oct4 positive (immunocytochemistry),[3],~100%
same,increase of Nkx2.2 expression compared to samples without activin A,[4]; 50 ng/ml activin A with 50 ng/ml basic FGF and 1 μM Retinoic Acid,about 35 fold
same,Pdx1 gene expression,"[4]; Activin A 100 ng/ml up to seven days, 0% to 2% serum",no Pdx1 gene expression was observed
same,expression of Brachyury,"[4]; H9, activin A 100 ng/ml",decreased
same,expression of the neuronal marker Zic1,"[4]; H9, activin A 100 ng/ml",no effect
same,expression of the extraembryonic endoderm markers Sox7 and AFP,"[4]; H9, activin A 100 ng/ml, one to seven days",time-dependent decrease
same,"anterior endoderm markers, Cerberus, Otx-1 and Hex genes","[4]; H9, activin A 100 ng/ml, three and five days",significant up regulation
same,"expression of CXCR4, GATA4, HNF-3beta, Mix11 and Sox-17 mRNA","[4]; H9 line, activin A 100 ng/ml, two, five and eight days",time-dependent increase
same,expression of Ngn3 or Insulin,[4]; activin A alone or in combination with retinoic acid and FGFs,did not induce
same,expression of Pdx1,[4]; activin A or retinoic acid alone,did not induce
same,CXCR4 relative expression,H9P44 cells,19.5
same,Goosecoid relative expression,H9P44 cells,2.8
same,HNF-3B relative expression,H9P44 cells,0.64
same,Oct-4 relative expression,H9P44 cells,1.1
same,SOX-2 relative expression,H9P44 cells,0.91
same,Sox17 relative expression,H9P44 cells,45
Wnt-3a,expression of DE markers,SA002 ES line,robust expression
